Test results as given in PubChem BioAssay AID977613 (Broad Institute, 2014).
Active and inactive are the calls of the source. No rule for the calls is given here.

System: Broad 7084-01 inhibitor HTS, set 2
Assay: single-concentration hits, screen 7084 set 2 (AID 977613);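 also: host cells are infected with parasite promastigotes that become internalized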

Row | Structure (SMILES) | active concentration
1 | O=C(c1ccccc1)N1[C@H](CO)[C@H](c2ccccc2)C12CN(Cc1nccs1)C2 | > 10 µM (inactive)
2 | COc1ccc(NC(=O)N2CC(=O)N3[C@H](CO)[C@H](c4ccc(Br)cc4)[C@H]3C2)cc1 | > 10 µM (inactive)
3 | OC[C@@H]1[C@H]2c3ccccc3NC[C@H]2N1CC1CCOCC1 | > 10 µM (inactive)
4 | CN1CCN(C(=O)C[C@H]2CC[C@@H]3[C@H](COC[C@@H](O)CN3C(=O)C3CC3)O2)CC1 | > 10 µM (inactive)
5 | COc1ccc(NC(=O)N2CC(=O)N3[C@H](CO)[C@H](c4ccc(Br)cc4)[C@@H]3C2)cc1 | > 10 µM (inactive)
6 | CCS(=O)(=O)Nc1ccc2c(c1)C(=O)N(C)[C@@H]1CC[C@H](CC(=O)N[C@H]3CCN(Cc4ccccc4)C3)O[C@H]1CO2 | > 10 µM (inactive)
7 | COC(=O)C[C@@H]1CC[C@@H]2[C@H](COc3ccc(NS(=O)(=O)c4ccccc4Cl)cc3C(=O)N2C)O1 | > 10 µM (inactive)
8 | O=C(Nc1cc(F)ccc1F)N1CCCCN2[C@H](C1)[C@H](c1ccc(C3=CCCCC3)cc1)[C@@H]2CO | > 10 µM (inactive)
9 | O=C(CN1CCOCC1)N1CC(=O)N2[C@H](CO)[C@H](c3ccc(-c4cccc(F)c4)cc3)[C@@H]2C1 | > 10 µM (inactive)
10 | N#Cc1cccc(-c2ccc3c(c2)[C@@H]2[C@@H](CCN2S(=O)(=O)c2ccc(F)cc2)[C@H](CO)N3)c1 | > 10 µM (inactive)
11 | Cc1ccccc1-c1ccc([C@@H]2[C@@H](CO)N3C(=O)CN(S(C)(=O)=O)C[C@@H]23)cc1 | > 10 µM (inactive)
12 | O=C(C[C@H]1CC[C@H]2[C@@H](COC[C@H](O)CN2S(=O)(=O)c2cccc(Cl)c2)O1)Nc1ccc(-c2ccccc2)cc1 | > 10 µM (inactive)
13 | CCN1CC(=O)N2[C@H](CO)[C@H](c3ccc(Br)cc3)[C@@H]2C1 | > 10 µM (inactive)
14 | CN1c2ccc(-c3ccc(C#N)cc3)cc2[C@@H]2[C@@H](CCN2C(=O)Nc2cccc(F)c2)[C@@H]1CO | > 10 µM (inactive)
15 | COc1ccc2c3c([nH]c2c1)[C@@H](CO)N(C(=O)Nc1c(C)noc1C)CC31CN(CC2CCOCC2)C1 | > 10 µM (inactive)
16 | O=C(C1CCCCC1)N1CC(=O)N2[C@H](CO)[C@H](c3ccc(-c4ccccc4F)cc3)[C@@H]2C1 | > 10 µM (inactive)
17 | CS(=O)(=O)N1[C@@H]2c3ccc(C4=CCCC4)c(=O)n3C[C@@H]2[C@@H](CO)[C@@H]1C(=O)NCCc1ccncc1 | > 10 µM (inactive)
18 | O=C(CC(F)(F)F)N1C[C@@H]2[C@H](c3ccccc31)[C@H](CO)N2C(=O)C1CC1 | > 10 µM (inactive)

Row | Structure (SMILES) | active concentration
19 | N#C[C@@H]1[C@@H](c2ccccc2-c2cccc(F)c2)[C@@H](CO)N1C(=O)CN1CCOCC1 | > 10 µM (inactive)
20 | OC[C@@H]1[C@H](c2ccc(Br)cc2)[C@H]2CN(Cc3ccccn3)CCCCN12 | > 10 µM (inactive)
21 | COc1ccc(CN2[C@@H]3CNc4ccccc4[C@@H]3[C@@H]2CO)cc1 | > 10 µM (inactive)
22 | Cc1ccccc1-c1ccc([C@H]2[C@H](CO)N3C(=O)CN(C(=O)Nc4cccc(F)c4)C[C@@H]23)cc1 | > 10 µM (inactive)
23 | Cc1ccc(-c2ccccc2[C@@H]2[C@H](C#N)N(C(=O)c3cccc(F)c3)[C@H]2CO)cc1 | > 10 µM (inactive)
24 | N#C[C@H]1[C@H](c2ccccc2C2=CCCCC2)[C@@H](CO)N1C(=O)C1CCOCC1 | > 10 µM (inactive)
25 | COc1ccc2c3c([nH]c2c1)[C@@H](CO)N(C(=O)Nc1ccc(F)cc1)CC31CN(S(=O)(=O)c2ccc(C)cc2)C1 | > 10 µM (inactive)
26 | COc1ccc2c3c([nH]c2c1)[C@@H](CO)N(S(=O)(=O)c1ccc(C)cc1)CC31CCN(C(=O)Cc2cccnc2)CC1 | > 10 µM (inactive)
27 | CCC(=O)N1CC2(CN(C(C)=O)C2)c2c([nH]c3cc(OC)ccc23)[C@@H]1CO | > 10 µM (inactive)
28 | COc1ccc(C#Cc2ccc3c(c2)[C@H]2[C@H](CCN2C(=O)Nc2ccc(C(F)(F)F)cc2)[C@@H](CO)N3C)cc1 | > 10 µM (inactive)
29 | COc1cccc(S(=O)(=O)N2CCCCN3[C@H](C2)[C@@H](c2ccc(C#CCC(C)C)cc2)[C@@H]3CO)c1 | > 10 µM (inactive)
30 | Cc1ccc(S(=O)(=O)N2CC[C@@H]3[C@H]2c2cc(C#Cc4ccc(F)cc4)ccc2N[C@@H]3CO)cc1 | > 10 µM (inactive)
31 | O=C(C[C@H]1CC[C@@H]2[C@H](COC[C@@H](O)CN2Cc2cccc(F)c2)O1)NCc1cccc(F)c1 | > 10 µM (inactive)
32 | CC(C)CC#Cc1ccc([C@@H]2[C@H](CO)N3C(=O)CN(S(=O)(=O)c4cccc(F)c4)C[C@@H]23)cc1 | > 10 µM (inactive)
33 | O=C(C[C@H]1CC[C@@H]2[C@H](COC[C@H](O)CN2Cc2ccc(Cl)cc2)O1)NCc1ccccc1Cl | > 10 µM (inactive)
34 | CCC(=O)N1[C@@H](CO)[C@@H](c2ccccc2)C12CN(C(=O)c1ccc3c(c1)OCO3)C2 | > 10 µM (inactive)
35 | CN1c2ccc(-c3cccc(F)c3)cc2[C@@H]2[C@@H](CCN2C(=O)c2ccccc2F)[C@@H]1CO | > 10 µM (inactive)
